# Reference: patent US9920069B2, “Compounds for treatment of fluoroquinolone-resistant bacteria” (The Board of Trustees of the University of Illinois, priority 2014, dated 2018)
# Where two headings read alike, the source gives them in different places.
# How the values were obtained:
# [1] = system: MRSA clinical isolate SAU.492; assay: microbe, parasite or virus in culture; type: cell-based, S. aureus; settings: Staphylococcus aureus, read-out: MIC
# Experimental: (§1) Susceptibility testing was performed in triplicate using the microdilution broth method as outlined by the Clinical and Laboratory Standards Institute CLSI^52. MH broth was used.
# [2] = system: MRSA clinical isolate SAU.709; assay: microbe, parasite or virus in culture; type: cell-based, S. aureus; settings: Staphylococcus aureus, read-out: MIC
# Experimental: as §1
# [3] = system: MRSA clinical isolate SAU.489; assay: microbe, parasite or virus in culture; type: cell-based, S. aureus; settings: Staphylococcus aureus, read-out: MIC
# Experimental: as §1
# [4] = system: MRSA clinical isolate SAU.494; assay: microbe, parasite or virus in culture; type: cell-based, S. aureus; settings: Staphylococcus aureus, read-out: MIC
# Experimental: as §1
# [5] = system: MRSA clinical isolate SAU.496; assay: microbe, parasite or virus in culture; type: cell-based, S. aureus; settings: Staphylococcus aureus, read-out: MIC
# Experimental: as §1
# [6] = system: MRSA clinical isolate SAU.493; assay: microbe, parasite or virus in culture; type: cell-based, S. aureus; settings: Staphylococcus aureus, read-out: MIC
# Experimental: as §1
# [7] = system: MRSA clinical isolate SAU.710; assay: microbe, parasite or virus in culture; type: cell-based, S. aureus; settings: Staphylococcus aureus, read-out: MIC
# Experimental: as §1
# [8] = system: MRSA clinical isolate SAU.491; assay: microbe, parasite or virus in culture; type: cell-based, S. aureus; settings: Staphylococcus aureus, read-out: MIC
# Experimental: as §1
# [9] = system: MRSA clinical isolate SAU.495; assay: microbe, parasite or virus in culture; type: cell-based, S. aureus; settings: Staphylococcus aureus, read-out: MIC
# Experimental: as §1
# [10] = system: MRSA clinical isolate SAU.3017
# Experimental: as §1
# [11] = system: MRSA clinical isolate SAU.3026; assay: MIC, microdilution broth; type: cell-based, S. aureus
# Experimental: as §1
# [12] = system: MRSA clinical isolate SAU.846; assay: MIC, microdilution broth; type: cell-based, S. aureus
# Experimental: as §1
# [13] = system: MRSA clinical isolate SAU.42; assay: MIC, microdilution broth; type: cell-based, S. aureus; settings: Staphylococcus aureus
# Experimental: as §1
# [14] = system: MRSA clinical isolate SAU.3024; assay: MIC, microdilution broth; type: cell-based, S. aureus; settings: Staphylococcus aureus
# Experimental: as §1
# [15] = system: MRSA clinical isolate SAU.555; assay: MIC, microdilution broth; type: cell-based, S. aureus; settings: Staphylococcus aureus
# Experimental: as §1
# [16] = system: MRSA clinical isolate SAU.2996; assay: MIC, microdilution broth; type: cell-based, S. aureus
# Experimental: as §1
# [17] = system: MRSA clinical isolate SAU.669; assay: MIC, microdilution broth; type: cell-based, S. aureus; settings: Staphylococcus aureus
# Experimental: as §1
# [18] = system: MRSA clinical isolate SAU.446; assay: MIC, microdilution broth; type: cell-based, S. aureus; settings: Staphylococcus aureus
# Experimental: as §1
# [19] = system: MRSA clinical isolate SAU.3021; assay: MIC, microdilution broth; type: cell-based, S. aureus
# Experimental: as §1
# [20] = system: MRSA clinical isolate SAU.419; assay: MIC, microdilution broth; type: cell-based, S. aureus
# Experimental: as §1
# [21] = system: MRSA clinical isolate SAU.1118; assay: MIC, microdilution broth; type: cell-based, S. aureus; settings: Staphylococcus aureus
# Experimental: as §1
# [22] = system: MRSA clinical isolate SAU.447; assay: MIC, microdilution broth; type: cell-based, S. aureus; settings: Staphylococcus aureus
# Experimental: as §1
# [23] = system: MRSA clinical isolate SAU.3025; assay: MIC, microdilution broth; type: cell-based, S. aureus; settings: Staphylococcus aureus
# Experimental: as §1
# [24] = system: VRE clinical isolate S206; assay: organism not typed; type: cell-based, E. faecalis
# Experimental: (§2) QRDR mutations were determined as described in the text using primers (primer sequences can be found in Table 7).
# as §1
# Enterococcus ATCC 19433 = assay: organism not typed; type: cell-based, E. faecalis; settings: ATCC 19433, E. faecalis; gyrA WT, parC WT; read-out: MIC
# [25] = system: S. aureus 29213 (WT GyrA and WT ParC); assay: microbe, parasite or virus in culture; type: cell-based; settings: Staphylococcus aureus; WT GyrA and WT ParC; read-out: MIC against S. aureus 29213
# Experimental: as §1
# VRE clinical isolate D1 = assay: organism not typed; type: cell-based, E. faecium; settings: read-out: MIC
# [26] = system: VRE clinical isolate S234; assay: organism not typed; type: cell-based, E. faecalis; settings: read-out: MIC
# Enterococcus ATCC 29212 = assay: organism not typed; type: cell-based, E. faecalis; settings: ATCC 29212, E. faecalis; gyrA WT, parC WT; read-out: MIC
# A. baumannii KB304 = assay: MIC, microdilution broth; type: cell-based; settings: Acinetobacter baumannii
# Experimental: (§3) E. coli MG1655 and the ΔAcrB strain were obtained from Prof. Cari Vanderpool at UIUC.
# as §1
# A. baumannii KB349 = assay: MIC, microdilution broth; type: cell-based; settings: Acinetobacter baumannii
# Experimental: as §3, §1
# E. coli ATCC 25922 = assay: microbe, parasite or virus in culture; type: cell-based; settings: Escherichia coli, ATCC25922, gyrA none, parC none
# Experimental: as §3, §1
# P. aeruginosa PAO1 = assay: microbe, parasite or virus in culture; type: cell-based; settings: Pseudomonas aeruginosa, gyrA none, parC none
# Experimental: as §3, §1
# A. baumannii ATCC 19606 = assay: microbe, parasite or virus in culture; type: cell-based; settings: Acinetobacter baumannii, ATCC19606, gyrA none, parC none
# Experimental: as §3, §1
# [27] = system: MRSA clinical isolate SAU.708; assay: microbe, parasite or virus in culture; type: cell-based, S. aureus; settings: Staphylococcus aureus, read-out: MIC
# Experimental: as §1
# physchem [28] = settings: organic solvent or mixture, thermodynamic from solid
# MRSA clinical isolates = assay: Panel of MRSA clinical isolates (FIG. 2A); type: cell-based, S. aureus; settings: n=21, in words
# VRE clinical isolates = assay: Panel of VRE clinical isolates (FIG. 2B); type: cell-based, Enterococcus; settings: n=22, in words
# [29] = system: VRE clinical isolate S557; assay: organism not typed; type: cell-based, E. faecium; settings: read-out: MIC
# [30] = system: VRE clinical isolate C28036; assay: microbe, parasite or virus in culture; type: cell-based, Ent. Spp.; settings: Enterococcus
# Experimental: as §2, §1
# physchem [31] = settings: pH 7.4 PBS; three replicates ± SEM
# Experimental: Enough PBS was added to make a 1 mg/mL solution. Compounds were then assessed by LC-MS and compared to a calibration curve to determine the solubility. […] Data shown is from three independent replicates±SEM. […] Between DMSO additions, the vial was vortexed and sonicated.
# The compound was vortexed for ˜30 seconds before being placed into a bath sonicator (Cole Parmer, ultrasonic cleaner) for 1 h. […] The tubes were vortexed again for 30 s before being centrifuged at maximum speed (13,000×g) for 10 minutes. The supernatant was then filtered through a 0.22 μm syringe filter (Millipore Millex MP). […] Three independent replicates of each compound were performed. A calibration curve for each compound was generated from 1-400 μM by dissolving the compound in DMSO and making dilutions of the stock in DMSO. […] The concentration of the samples was calculated based on the calibration curves.
# PA1586 = assay: MIC, microdilution broth; type: cell-based, P. aeruginosa; settings: Pseudomonas aeruginosa
# Experimental: as §3, §1
# VRE clinical isolate U63 = assay: organism not typed; type: cell-based, E. faecium
# Experimental: as §2, §1
# [32] = system: VRE clinical isolate C27282; assay: organism not typed; type: cell-based, E. faecium
# Experimental: as §2, §1
# [33] = system: VRE clinical isolate U563; assay: organism not typed; type: cell-based, E. faecium
# Experimental: as §2, §1
# VRE clinical isolate S34 = assay: organism not typed; type: cell-based, E. faecium
# Experimental: as §2, §1
# [34] = system: VRE clinical isolate U275; assay: organism not typed; type: cell-based, E. faecium
# Experimental: as §2, §1
# VRE clinical isolate S51 = assay: organism not typed; type: cell-based, E. faecium
# Experimental: as §2, §1
# [35] = system: VRE clinical isolate U464; assay: organism not typed; type: cell-based, E. faecium
# Experimental: as §2, §1
# [36] = system: VRE clinical isolate C21190; assay: organism not typed; type: cell-based, E. faecium
# Experimental: as §2, §1
# [37] = system: VRE clinical isolate S226; assay: organism not typed; type: cell-based, E. faecium
# Experimental: as §2, §1
# [38] = system: VRE clinical isolate S235; assay: organism not typed; type: cell-based, E. faecium
# Experimental: as §2, §1
# [39] = system: VRE clinical isolate U503; assay: organism not typed; type: cell-based, E. faecium
# Experimental: as §2, §1
# [40] = Staphylococcus aureus, MRSA, read-out: MIC
compound,measurement,setting,value
"CC1(C)S[C@@H]2[C@H](NC(=O)[C@H](N)c3ccccc3)C(=O)N2[C@H]1C(=O)O [Amp, Ampicillin, reference compound]",MIC,[1],> 64 mg/L
same,MIC,[2],> 64 mg/L
same,MIC,[3],> 64 mg/L
same,MIC,[4],> 64 mg/L
same,MIC,[5],> 64 mg/L
same,MIC,[6],> 64 mg/L
same,MIC,[7],> 64 mg/L
same,MIC,[8],> 64 mg/L
same,MIC,[9],> 64 mg/L
same,MIC,[10],>64 mg/L
same,MIC,[11],>64 mg/L
same,MIC,[12],>64 mg/L
same,MIC,[13],2 mg/L
same,MIC,[14],> 64 mg/L
same,MIC,[15],> 64 mg/L
same,MIC,[16],>64 mg/L
same,MIC,[17],> 64 mg/L
same,MIC,[18],> 64 mg/L
same,MIC,[19],>64 mg/L
same,MIC,[20],>64 mg/L
same,MIC,[21],> 64 mg/L
same,MIC,[22],> 64 mg/L
same,MIC,[23],64 mg/L
CCCn1c(=O)cc(C)c2cc3c(C)cc(=O)n4c3c(c21)OC4 [DNM-8],MIC,[24],4 mg/L
same,MIC,Enterococcus ATCC 19433,16 mg/L
same,MIC,[25],16 mg/L
same,MIC,VRE clinical isolate D1,0.5 mg/L
same,MIC,[26],0.5 mg/L
same,MIC,Enterococcus ATCC 29212,8 mg/L
same,MIC,A. baumannii KB304,> 32 mg/L
same,MIC,A. baumannii KB349,> 32 mg/L
same,MIC,E. coli ATCC 25922,> 32 mg/L
same,MIC,P. aeruginosa PAO1,> 32 mg/L
same,MIC,A. baumannii ATCC 19606,> 32 mg/L
same,MIC,[2],0.25 mg/L
same,MIC,[27],1 mg/L
same,MIC,[3],0.25 mg/L
same,MIC,[4],0.25 mg/L
same,MIC,[5],0.25 mg/L
same,MIC,[6],0.25 mg/L
same,MIC,[7],0.125 mg/L
same,MIC,[8],0.5 mg/L
same,MIC,[9],0.25 mg/L
same,solubility,physchem [28],11.3 mM
same,sensitivity of MRSA clinical isolates,MRSA clinical isolates,sensitive
same,sensitivity of VRE clinical isolates,VRE clinical isolates,sensitive
same,MIC,[29],0.5 mg/L
same,MIC,[30],1 mg/L
same,MIC,[11]; [40],0.25 mg/L
same,MIC,[15],0.5 mg/L
same,MIC,[19]; [40],0.125 mg/L
same,MIC,[20]; [40],0.25 mg/L
same,Solubility in pH 7.4 PBS,physchem [31],68 μM
same,MIC,PA1586,> 32 mg/L
same,MIC,VRE clinical isolate U63,4 mg/L
same,MIC,[32],8 mg/L
same,MIC,[33],4 mg/L
same,MIC,VRE clinical isolate S34,2 mg/L
same,MIC,[34],4 mg/L
same,MIC,VRE clinical isolate S51,1 mg/L
same,MIC,[35],2 mg/L
same,MIC,[36],8 mg/L
same,MIC,[37],1 mg/L
same,MIC,[38],1 mg/L
same,MIC,[39],4 mg/L
